From paper PMC5397029, “Variations in the interaction of human defensins with Escherichia coli: Possible implications in bacterial killing” (PLoS ONE, 2017)
Entries after “also recorded” stand apart in the source; their conditions may differ. Where two headings read alike, the source gives them in different places. Peptide text beside a SMILES is read from it.

Assays:
E. coli = assay: Zeta potential of E. coli in the presence of defensins; type: cell-based, Escherichia coli; conditions: for E. coli surface charge neutralizing ability (change in zeta potential): 5 μM defensin, except HD5 2.5 μM and HBD3 0.5 μM, three independent experiments; for concentration found to neutralize the E. coli surface charge almost completely: zeta potential of E. coli
Description: Zeta potential of the E. coli in the presence of human defensins was measured as described previously. The concentration of peptide used was 5μM, except for HBD3 and HD5. […] Cells were treated with 5 μM defensin and zeta potential was measured, except in the cases of HD5 and HBD3. In the cases of HD5 and HBD3, zeta potential was measured after treating with 2.5 μM and 0.5 μM of peptides, respectively. Control represent zeta potential of E. coli in the absence of any peptide. Error bars represents standard deviations of three independent experiments.

E. coli inner membrane [1] = assay: Time-lapse fluorescence confocal microscopy (SYTOX green / FM4-64); type: cell-based, Escherichia coli; conditions: for Intracellular accumulation of SYTOX green (E. coli inner membrane permeabilization): sub-lethal concentrations: HBD1 3 μM, HBD2 3 μM, HBD3 1 μM, HBD4 3 μM, HNP3 8 μM, HNP4 4 μM, HD5 2.5 μM, HD6 5 μM, 10^6 CFU/mL, 10 mM sodium phosphate buffer pH 7.4; for Intracellular accumulation of SYTOX green (E. coli inner membrane permeabilization) / time at which SYTOX green accumulation is evident: 5 nM SYTOX green; for time at which SYTOX green accumulation is evident: sub-lethal defensin concentrations, time-lapse confocal microscopy
Description: Effect of defensins on the E. coli inner membrane was examined using time-lapse confocal fluorescence microscopy. The assay was carried out as follows. Bacteria from the mid-log-phase was collected and resuspended (final density was adjusted to 10^6 CFU/mL) in 10 mM sodium phosphate buffer (pH 7.4). Cells were then treated with 3 μM FM4-64 for 20 minutes at room temperature to stain the inner membrane. FM4-64 is a lipophilic dye which stains the bacterial inner membrane. Excess dye was removed by centrifuging. The FM4-64 stained cells were then treated with sub-lethal concentrations of defensins in presence of 5 nM of SYTOX green. […] Cells were immediately transferred to chambered slides and images were recorded using 100X oil immersion objective on a Leica Ultraspectral microscope SP8 (Leica Microsystems). Argon 488 and HeNe 561 lasers were used to excite SYTOX green and FM4-64, respectively. Signals ranging from 510 to 560 nm and 600 to 740 nm were collected for SYTOX green and FM4-64, respectively. Images were processed using LAS-AFver3.1.3 (Leica Microsystems).

E. coli inner membrane [2] = assay: SYTOX green uptake assay using fluorescent spectroscopy; type: cell-based, Escherichia coli; conditions: 2 × MBC of defensins, 200 nM SYTOX green, 5 × 10^6 CFU/mL, 10 mM phosphate buffer
Description: Effect of defensins on the E. coli inner membrane was assessed by measuring the extent of intracellular accumulation of SYTOX green. Cells from mid-log-phase were collected, washed and resuspended in 10 mM phosphate buffer. The final density was adjusted to 5 × 10^6 CFU/mL. […] Enhancement in SYTOX green fluorescence, a direct measure of the extent of membrane permeabilization was monitored in a Flurolog 3–22 fluorescence spectrophotometer (Jobin Yvon, USA). Excitation and emission wavelengths used were 503 nm and 523 nm, respectively.  Fig 4 Accumulation of SYTOX green in human defensins treated E. coli. […] The arrows indicate the point at which defensins were added.

[3] = Calcein release assay from lipid vesicles; conditions: calcein entrapped POPC:POPG (1:1) LUVs, 25 μM, 10 mM sodium phosphate buffer pH 7.4, increasing defensin concentrations; 1% Triton X-100 = 100%
Description: Large unilamellar vesicles (LUVs) composed of POPC:POPG (1:1) containing 50 mM calcein were prepared by lipid extrusion method. Desired amounts of lipids from their respective chloroform stocks were taken into a glass tube and dried under a nitrogen stream to form a thin uniform lipid film. The film was further dried under vacuum for 5 to 6 hours to remove trace amounts of organic solvents. After this step, the lipid film was hydrated with 10 mM sodium phosphate buffer (pH 7.4) containing 50 mM calcein at 4°C for 12 to 15 hours. Hydrated lipid films were then vortexed and passed through polycarbonate membrane having a pore diameter of 100 nm using a mini-extruder (Avanti Polar Lipid Inc.). Free calcein was removed by passing through a Sephadex G50 column. Calcein entrapped vesicles (25 μM) were then treated with increasing concentrations of defensins and extent of calcein released was measured in a Fluorolog 3–22 fluorescence spectrophotometer (Jobin Yvon, USA). Excitation and emission wavelengths used were 485 and 515 nm, respectively. 1% Triton X-100 was used for complete release of calcein.  Fig 5 Effect of human defensins on POPC:POPG (1:1) vesicles. Calcein entrapped POPC: POPG vesicles (25 μM) were treated with increasing concentrations of human defensins and percentage of calcein released was calculated. Calcein released by 1% Triton X-100 was taken as 100%.

[4] = Transmission electron microscopy of defensin aggregates; type: physicochemical; conditions: 20 μM defensin in 10 mM sodium phosphate buffer pH 7.4, uranyl acetate stain, TEM
Description: Defensins were diluted to a concentration of 20 μM in 10 mM sodium phosphate buffer (pH 7.4) from their respective stocks solutions (dissolved in Milli-Q water). From these solutions, 5 μL was deposited on a carbon-coated Formvar 200-mesh copper grid. The grid was left undisturbed for about 5 minutes; excess buffer was then removed using Whatman filter paper. Grids were stained with uranyl acetate (2% w/v) for 45 seconds. Excess stain was removed and grids were used for recording the images. Images were recorded using JAM-2100 LaB6 transmission electron microscope (JEOL, Tokyo, Japan) at 100 kV.

E. coli inner membrane [5] = conditions: ref Wang et al. [55]; cited from earlier work
Description: Recent findings indicate HD5 exerts its activity against the E. coli by localizing to bacterial cytoplasm and possibly interacting with DNA [39]. In a very recent study, Wang et al., have shown that HD5 permeabilizes the E. coli inner membrane. However, prolonged incubation (~40 minutes) was required t ...

E. coli MG1655 = conditions: cited from earlier work
From the text: Table 2 Minimum Bactericidal Concentration (MBC) of human defensins against E. coli MG1655. | column: Minimum bactericidal concentration in μM^a

[6] = ref Krishnakumari et al. 2013 [44]

Compound	E. coli surface charge neutralizing ability (change in zeta potential) (E. coli)	concentration found to neutralize the E. coli surface charge almost completely (E. coli) [µM]	Intracellular accumulation of SYTOX green (E. coli inner membrane permeabilization) (E. coli inner membrane [1])	time at which SYTOX green accumulation is evident (E. coli inner membrane [1])	Damage to the E. coli inner membrane (SYTOX green accumulation, time-lapse microscopy and fluorescent spectroscopy) (E. coli inner membrane [2])	Permeabilization of lipid vesicles (calcein release) [3]	Morphology of self-assembled aggregates (electron micrographs) [4]	incubation required to observe E. coli inner membrane perturbation (E. coli inner membrane [5])	Minimum bactericidal concentration (E. coli MG1655; [6]) [µM]	Morphological features of FM4-64 stained E. coli inner membrane (E. coli inner membrane [1]; 3 μM FM4-64, sub-lethal defensin concentration (HBD4 3 μM))	Minimum bactericidal concentration (E. coli MG1655; ref Sharma and Nagaraj 2012 [45]) [µM]
CC[C@H](C)[C@@H]1NC(=O)[C@H](CCC(=O)O)NC(=O)[C@@H]2CSSC[C@@H]3NC(=O)[C@H](Cc4ccc(O)cc4)NC(=O)[C@@H](NC(=O)[C@@H](NC(=O)[C@H](C)N)[C@@H](C)O)CSSC[C@@H](C(=O)N[C@@H](CCCNC(=N)N)C(=O)O)NC(=O)[C@H](CSSC[C@H](NC(=O)[C@H](CCCNC(=N)N)NC(=O)CNC(=O)[C@H]([C@@H](C)O)NC(=O)[C@H](CCCNC(=N)N)NC3=O)C(=O)N[C@@H](C)C(=O)N[C@@H]([C@@H](C)O)C(=O)N[C@@H](CCCNC(=N)N)C(=O)N[C@@H](CCC(=O)O)C(=O)N[C@@H](CO)C(=O)N[C@@H](CC(C)C)C(=O)N[C@@H](CO)C(=O)NCC(=O)N[C@@H](C(C)C)C(=O)N2)NC(=O)[C@H](CC(C)C)NC(=O)[C@H](CCCNC(=N)N)NC(=O)[C@H](Cc2ccc(O)cc2)NC(=O)[C@H](CC(C)C)NC(=O)[C@H](CCCNC(=N)N)NC(=O)CNC(=O)[C@H](CO)NC1=O [HD5] (HELM PEPTIDE1{A.T.C.Y.C.R.T.G.R.C.A.T.R.E.S.L.S.G.V.C.E.I.S.G.R.L.Y.R.L.C.C.R}$PEPTIDE1,PEPTIDE1,3:R3-31:R3|PEPTIDE1,PEPTIDE1,5:R3-20:R3|PEPTIDE1,PEPTIDE1,10:R3-30:R3$$$V2.0; N-terminus and C-terminus assumed)	neutralizes the E. coli surface charge at much lower concentration than HNP4	2.5	does not permeabilize the E. coli inner membrane; also recorded: faint localization of SYTOX green	30 min	do not cause extensive damage to the E. coli inner membrane	do not permeabilize membranes	rod-like structures	~ 40 minutes	–	–	–
CC[C@H](C)[C@@H]1NC(=O)[C@H](CC(C)C)NC(=O)[C@@H]2CSSC[C@@H]3NC(=O)[C@H](CO)NC(=O)[C@@H](NC(=O)[C@@H](N)C(C)C)CSSC[C@@H](C(=O)N[C@H](C(=O)N[C@@H](CCCNC(=N)N)C(=O)N[C@H](C(=O)O)C(C)C)[C@@H](C)O)NC(=O)[C@H](CSSC[C@H](NC(=O)[C@H](Cc4ccccc4)NC(=O)[C@H](C(C)C)NC(=O)[C@H](CC(C)C)NC(=O)[C@H](CCCNC(=N)N)NC3=O)C(=O)N[C@@H](CCCNC(=N)N)C(=O)N[C@@H](CCCNC(=N)N)C(=O)N[C@@H]([C@@H](C)O)C(=O)N[C@@H](CCC(=O)O)C(=O)N[C@@H](CC(C)C)C(=O)N[C@@H](CCCNC(=N)N)C(=O)N[C@@H](C(C)C)C(=O)NCC(=O)N[C@@H](CC(N)=O)C(=O)N2)NC(=O)[C@H](Cc2ccc(O)cc2)NC(=O)[C@H]([C@@H](C)O)NC(=O)[C@H](Cc2ccccc2)NC(=O)[C@H](CO)NC(=O)[C@H](C(C)C)NC(=O)CNC(=O)CNC1=O [HNP4] (HELM PEPTIDE1{V.C.S.C.R.L.V.F.C.R.R.T.E.L.R.V.G.N.C.L.I.G.G.V.S.F.T.Y.C.C.T.R.V}$PEPTIDE1,PEPTIDE1,2:R3-30:R3|PEPTIDE1,PEPTIDE1,4:R3-19:R3|PEPTIDE1,PEPTIDE1,9:R3-29:R3$$$V2.0; N-terminus and C-terminus assumed)	–	–	cytoplasmic accumulation of SYTOX green is evident	11 min	–	–	–	–	–	–	–
AFTC^1HC^2RRSC^3YSTEYSYGTC^2TVMGINHRFC^3C^1L (bicyclic or more) [HD6]	neutralizes the E. coli surface charge more efficiently than HBD4 (+7), HBD1 (+ 4) and HNP3 (+2)	–	–	–	do not cause extensive damage to the E. coli inner membrane	do not permeabilize membranes	distinctive fibrillar morphology	–	–	–	–
DHYNC^1VSSGGQC^2LYSAC^3PIFTKIQGTC^2YRGKAKC^1C^3K (bicyclic or more) [HBD1, human β-defensin, three disulfide bonds, purchased from Peptides International]	poor surface charge neutralizing ability	–	faint accumulation of SYTOX green	~ 20 min	do not cause extensive damage to the E. coli inner membrane	do not permeabilize membranes	–	–	8	–	–
ELDRIC^1GYGTARC^2RKKC^3RSQEYRIGRC^2PNTYAC^1C^3LRKWDESLLNRTKP (bicyclic or more) [HBD4, human β-defensin, three disulfide bonds, purchased from Peptides International]	–	–	–	–	–	does not permeabilize PC:PG vesicles	–	–	–	FM4-64 staining shows considerable diffusion into cytoplasm	5
GIGDPVTC^1LKSGAIC^2HPVFC^3PRRYKQIGTC^2GLPGTKC^1C^3KKP (bicyclic or more) [HBD2, human β-defensin, three disulfide bonds, purchased from Peptides International]	–	–	–	–	–	–	–	–	8	–	–
GIINTLQKYYC^1RVRGGRC^2AVLSC^3LPKEEQIGKC^2STRGRKC^1C^3RRKK (bicyclic or more) [HBD3, human β-defensin, three disulfide bonds, purchased from Peptides International]	most efficient bacterial surface charge neutralizing ability	0.5	–	–	–	–	–	–	2	–	–
